Test results as given in US20100184807A1, “Methods to inhibit tumor cell growth by using proton pump inhibitors” (Bio-Quant, Inc., priority 2008, published 2010).

What was measured:
Assay in all cases: MTT tumor cell growth assay
Format in all cases: cell-based
CCRF-CEM (leukemia) = settings: CCRF-CEM cells, lansoprazole 1-100 μM, 48 hours
Method: (§1) In one study, adherent cells were plated approximately 16-24 hours before the day of the experiment in 180 μl growth media. On the day of the experiment, the plated adherent cells were analyzed and counted and suspension cells were plated in 180 μl growth media. 10× lansoprazole compounds and vehicle was prepared. The 10× lansoprazole compounds were prepared by diluting lansoprazole to final concentrations of 100 μM, 30 μM, 10 μM, 3 μM, and 1 μM. A vehicle was prepared by preparing a solution of PBS, equivalent to the volume used for 10 μM lansoprazole wherein the 1× solution constitutes ˜0.06% PBS. 10 μl of the various 10× lansoprazole solutions and the vehicle were added to the cells. The cells were incubated at 37° C., 5% CO2 for 48 hours. The media was then aspirated. The cell suspension was then spun at 1500 RPM for 10 minutes. The media was slowly removed. 200 μl of MTT solution was added to each well with a concentration of 0.863 mg/ml MTT in the growth media. The cells were incubated at 37° C., 5% CO2 for 4 hours and the medium is then aspirated. The plate containing the cell suspension was then spun at 1500 RPM for 10 minutes. The media was slowly removed using a multichannel pipettor. 100 μl of DMSO was then added to each well. The cells were incubated at 37° C., 5% CO2 for 5 minutes and the absorbance was obtained at 560 nm using a Dynex Opsys MR plate reader. The cells used for this procedure were the following cell lines: IGROV1 (ovarian cancer); OVCAR 8 (ovarian cancer); ES-2 (ovarian cancer); CAOV3 (ovarian cancer); OVCAR5 (ovarian cancer); SUDHL4 (lymphoma); RPMI8226 (myeloma); RPMI6666 (Hodgkin's lymphoma); NC37 (lymphoma); GDM-1 (leukemia); MC/CAR (prostate cancer); DU-145 (prostate cancer), J45-01 (leukemia), MOLT3 (leukemia), HUT78, J-gamma-1 (leukemia), MCF7 […], COL0205 (colon cancer), HL60 CLONE 15 (leukemia), T47D (breast cancer), P116 (intestinal cancer), KU812 (leukemia), SW620 (colon cancer), MK92-M1 (lymphoma), MV-4-11 (leukemia), HS578T (breast cancer), HT29 (colon cancer), HCT 116 (colon cancer), CAKI-1 (kidney cancer), A549 (lung cancer), H460 (lung cancer), A3 (colon cancer), MDA-MB231 […], MALME 3M (melanoma), RXF393 (kidney cancer), RS4.11 (leukemia), PC3 (prostate cancer), OVCAR3 (ovarian cancer), MDA-MB435 (melanoma), HUT102 (lymphoma), HL60 (leukemia), CCRF-CEM (leukemia), HUT78 (lymphoma), 786-O (kidney cancer), ACHN (kidney cancer), A498 (kidney cancer), H226 (lung cancer), H522 (lung cancer), HOP92 (lung cancer), SNB 19 (brain cancer), OVCAR4 (ovarian cancer), H9 (lymphoma), UO-31 (kidney cancer), HH (lymphoma), DAUDI (leukemia), LOXIMVI (melanoma), NAMALWA (lymphoma), EKVX (lung cancer), DOHH2 (lymphoma), SNB75 (brain cancer), SKMEL28 (melanoma), SKMEL5 (melanoma), SKMEL2 (melanoma), M14 (melanoma), UACC 257 (melanoma), H332M (lung cancer), KM12 (colon cancer), HCC2998 (colon cancer), G401 (kidney cancer), RS1184 (lymphoma), MC116 (leukemia), MOLT4 (leukemia), JM1 (liver cancer), HOP-62 (lung cancer), HCT-15 (colon cancer), SF-539 (brain cancer), SF295 (brain cancer), ST486 (lymphoma), U251 (brain cancer), and UACC-62 (melanoma).

JMI = JMI cells, lansoprazole 1-100 μM, 48 hours
Method: as §1

UACC-62 (melanoma) = settings: UACC-62 cells, lansoprazole 1-100 μM, 48 hours
Method: as §1

NK92MI = NK92MI cells, lansoprazole 1-100 μM, 48 hours
Method: as §1

ST486 (lymphoma) = settings: ST486 cells, lansoprazole 1-100 μM, 48 hours
Method: as §1

HL60 clone 15 (leukemia) = settings: HL60 clone 15 cells, lansoprazole 1-100 μM, 48 hours
Method: as §1

HT29 (colon cancer) = settings: HT29 cells, lansoprazole 1-100 μM, 48 hours
Method: as §1

MDA-MB-435 (melanoma) = settings: MDA-MB-435 cells, lansoprazole 1-100 μM, 48 hours
Method: as §1

P116 (intestinal cancer) = settings: P116 cells, lansoprazole 1-100 μM, 48 hours
Method: as §1

H9 (lymphoma) = settings: H9 cells, lansoprazole 1-100 μM, 48 hours
Method: as §1

H460 (lung cancer) = settings: H460 cells, lansoprazole 1-100 μM, 48 hours
Method: as §1

H322M = H322M cells, lansoprazole 1-100 μM, 48 hours
Method: as §1

HOP-62 (lung cancer) = settings: HOP-62 cells, lansoprazole 1-100 μM, 48 hours
Method: as §1

MOLT3 (leukemia) = settings: MOLT3 cells, lansoprazole 1-100 μM, 48 hours
Method: as §1

DOHH2 (lymphoma) = settings: DOHH2 cells, lansoprazole 1-100 μM, 48 hours
Method: as §1

MDA-MB-231 = MDA-MB-231 cells, lansoprazole 1-100 μM, 48 hours
Method: as §1

IGROV 1 (ovarian cancer) = settings: IGROV 1 cells, lansoprazole 1-100 μM, 48 hours
Method: as §1

HUT78 (lymphoma) = settings: HUT78 cells, lansoprazole 1-100 μM, 48 hours
Method: as §1

Measured: tumor cell growth reduction

Cc1c(OCC(F)(F)F)ccnc1C[S+]([O-])c1nc2ccccc2[nH]1 (stereo not drawn) [lansoprazole]
significant tumor cell growth reduction: all assays above
